The subject of data set [1] is Hepatotoxicity. Put plainly: Literature-mined compound from Fourches et al multi-species drug-induced liver injury (DILI) dataset, effect in humans. The settings on record: human.
Data set [2] concerns Hepatotoxicity. Put plainly: Literature-mined compound from Fourches et al multi-species drug-induced liver injury (DILI) dataset, effect in rodents. The settings on record: rodentia.
For data set [3], the system named is Hepatotoxicity. Put plainly: Literature-mined compound from Fourches et al multi-species drug-induced liver injury (DILI) dataset, effect in non-rodents.

Consider GOLD SODIUM THIOMALATE, for which the Hepatotoxicity result is reported as “drug-induced liver injury reported” in data set [1], “drug-induced liver injury reported” in data set [2] and “no drug-induced liver injury reported” in data set [3].
In the case of HEPARIN, the Hepatotoxicity entry in data set [1], in data set [2] and in data set [3] was “drug-induced liver injury reported” each time.
For HYALURONIC ACID, the Hepatotoxicity entry in data set [1] was “drug-induced liver injury reported”; in data set [2] it was “drug-induced liver injury reported”; in data set [3], “no drug-induced liver injury reported”.
In the case of IRON(II) CITRATE, the Hepatotoxicity entry in data set [1] is reported as “no drug-induced liver injury reported”; in data set [2], “drug-induced liver injury reported”; in data set [3] it was “no drug-induced liver injury reported”.
Turning to IVERMECTIN, the figures for the Hepatotoxicity result in data set [1], in data set [2] and in data set [3] were “drug-induced liver injury reported”, “no drug-induced liver injury reported” and “no drug-induced liver injury reported”, respectively.
LACTOSE, ANHYDROUS: the Hepatotoxicity entry is “no drug-induced liver injury reported” in data set [1], “drug-induced liver injury reported” in data set [2] and “no drug-induced liver injury reported” in data set [3].
As to LECITHIN, the Hepatotoxicity result is recorded as “drug-induced liver injury reported” in data set [1], “drug-induced liver injury reported” in data set [2] and “no drug-induced liver injury reported” in data set [3].
Consider MANGAFODIPIR TRISODIUM, for which the Hepatotoxicity entry in data set [1] is “drug-induced liver injury reported”; in data set [2] it was “no drug-induced liver injury reported”; in data set [3], “no drug-induced liver injury reported”.
As to METHYLCOBALAMIN, the Hepatotoxicity result in data set [1] is recorded as “no drug-induced liver injury reported”; in data set [2], “drug-induced liver injury reported”; in data set [3] it was “no drug-induced liver injury reported”.
With OXALIPLATIN, the Hepatotoxicity result was “drug-induced liver injury reported” in data set [1], “no drug-induced liver injury reported” in data set [2] and “no drug-induced liver injury reported” in data set [3].
For the substance POLYETHYLENE GLYCOL, the results for the Hepatotoxicity entry in data set [1], in data set [2] and in data set [3] were “drug-induced liver injury reported”, “drug-induced liver injury reported” and “no drug-induced liver injury reported”, respectively.
Regarding POLYMYXIN B, the Hepatotoxicity entry in data set [1] is reported as “drug-induced liver injury reported”; in data set [2] it was “drug-induced liver injury reported”; in data set [3] it was “no drug-induced liver injury reported”.
In the case of POLYVINYL ALCOHOL, the Hepatotoxicity result is recorded as “no drug-induced liver injury reported” in data set [1], “no drug-induced liver injury reported” in data set [2] and “drug-induced liver injury reported” in data set [3].
With PORFIMER SODIUM, the Hepatotoxicity entry in data set [1] was “no drug-induced liver injury reported”; in data set [2], “drug-induced liver injury reported”; in data set [3] it was “no drug-induced liver injury reported”.
In the case of SILYMARIN, the Hepatotoxicity entry was “drug-induced liver injury reported” in data set [1], “drug-induced liver injury reported” in data set [2] and “no drug-induced liver injury reported” in data set [3].
On to SPIRAMYCIN, for which the figures for the Hepatotoxicity result in data set [1], in data set [2] and in data set [3] were “drug-induced liver injury reported”, “no drug-induced liver injury reported” and “no drug-induced liver injury reported”, respectively.
TYLOXAPOL: the figures for the Hepatotoxicity result in data set [1], in data set [2] and in data set [3] were “no drug-induced liver injury reported”, “drug-induced liver injury reported” and “no drug-induced liver injury reported”, respectively.
On to VITAMIN B12, for which the Hepatotoxicity result in data set [1] was “drug-induced liver injury reported”; in data set [2] it was “no drug-induced liver injury reported”; in data set [3], “no drug-induced liver injury reported”.
Turning to VITAMIN E, the Hepatotoxicity result in data set [1], in data set [2] and in data set [3] was “drug-induced liver injury reported” each time.
Turning to VITAMIN K, the Hepatotoxicity entry in data set [1] is recorded as “drug-induced liver injury reported”; in data set [2], “drug-induced liver injury reported”; in data set [3], “no drug-induced liver injury reported”.

These data come from ChEMBL document CHEMBL1697731, “Cheminformatics analysis of assertions mined from literature that describe drug-induced liver injury in different species” (Chem Res Toxicol, 2010).
